According to patent US9718790B2, “Triazine derivative and pharmaceutical composition having an analgesic activity comprising the same” (SHIONOGI & CO., LTD., priority 2010, dated 2017):

Key:
[1] = system: partial sciatic nerve ligation model in rats; experiment: Analgesic effect in a Seltzer model, Evaluation (1): mechanical allodynia, von Frey filaments; assay type: in vivo; details: rat, oral single administration, at 3 hours, read-out: analgesic effect, percent reversal of mechanical allodynia
Description: Rats were anaesthetized using isoflurane/O2 inhalation anaesthesia. After induction of anesthesia, the left thigh was shaved. An incision was made in the skin just below the hip bone. The muscle was bluntly dissected to expose the sciatic nerve. One third (⅓) to one half (½) of the sciatic nerve thickness was tightly ligated and the wound was closed. The right thigh is used as a sham-operated control. The right thigh undergoes an identical procedure with the left hind limb, however, the sciatic nerve is not manipulated or ligated.
Two weeks after nerve ligation, the effect on mechanical allodynia was assessed using a series of von Frey filaments. For habituation, the rats were placed into a plastic cage on a wire mesh bottom. The mechanical sensitivity (mechanical threshold) of the hind paws was estimated with a series of von Frey filaments (0.4-20 g). The measurement of mechanical sensitivity of the right and left hind paws was performed to obtain predose mechanical sensitivity. The rats showing thee threshold change from 0.6 to 2 g (in nerve ligated side) and 8 to 15 g (in sham operated side) were used in the experiments. On the day belone the experiment, the rats were evaluated with a series of von Frey filaments to familiarize them with the test procedure. The adopted animal was administrated with the test compounds. The test compounds were homogenized with mortar and pestle and suspended or diluted in 0.5% Methyl Cellulose to prepare 0.1-2.0 mg/mL/kg suspension and orally administered to rat using a syringe attached with a sonde. Post-dose mechanical sensitivities of the right and left hind paws were measured at approximately 1 to 5 hours after drug administration. Percent reversal of mechanical allodynia for each rat was calculated using the following formula. The analgesic effects of the compounds were compared.

[2] = target: CYP3A4 (Homo sapiens (Human), UniProt P08684); experiment: CYP3A4 fluorescent MBI test; assay type: in vitro ADME; details: substrate 7-BFC, pre-reaction time 0 or 30 minutes
Experimental: The CYP3A4 fluorescent MBI test is a test of investigating enhancement or CYP3A4 inhibition of a compound by a metabolism reaction, and the test was performed using, as CYP3A4 enzyme expressed in Escherichia coli and employlng, as an index, a reaction in which 7-benzyloxytrifluoromethylchmarin (BFC) is debenzylated by the CYP3A4 enzyme to produce a metabolite, 7-hydroxytrifluoromethylchmarin (HFC) emitting fluorescent light.
The reaction conditions were as follows: substrate, 5.6 μmol/L 7-BFC; pre-reaction time, 0 or 30 minutes; reaction time, 15 minutes; reaction temperature, 25° C.
An enzyme in a K-Pi buffer (pH 7.4) and a test drug solution as a pre-reaction. solution were added to a 96-well plate at the composition of the pre-reaction, a part of it was transferred to another 96-well plate so that it was 1/10 diluted by a substrate in a K-Pi buffer, NADPH as a co-factor was added to initiate a reaction as an index (without preincubation) and, after a predetermined time of a reaction, acetonitrile:0.5 mol/L Tris (trishydroxyaminomethane)=4:1 was added to stop the reaction. […] For the plate on which each index reaction had been performed, a fluorescent value of 7-HFC which is a metabolite was measured with a fluorescent plate reader. […]

CYP3A4, sequence (P08684 whole entry): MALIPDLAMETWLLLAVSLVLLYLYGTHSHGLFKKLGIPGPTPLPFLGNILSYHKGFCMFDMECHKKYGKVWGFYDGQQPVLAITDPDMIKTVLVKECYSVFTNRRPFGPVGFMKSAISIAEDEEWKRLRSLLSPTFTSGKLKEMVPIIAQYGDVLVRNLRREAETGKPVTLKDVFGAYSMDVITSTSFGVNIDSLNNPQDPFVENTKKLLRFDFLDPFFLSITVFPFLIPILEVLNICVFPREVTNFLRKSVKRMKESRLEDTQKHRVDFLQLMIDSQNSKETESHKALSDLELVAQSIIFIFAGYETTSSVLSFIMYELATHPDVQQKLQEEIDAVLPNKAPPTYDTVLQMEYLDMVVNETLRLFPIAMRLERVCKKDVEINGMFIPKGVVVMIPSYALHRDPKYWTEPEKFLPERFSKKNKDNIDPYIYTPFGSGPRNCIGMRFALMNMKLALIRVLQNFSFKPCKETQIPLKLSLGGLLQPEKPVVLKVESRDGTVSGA

Row | SMILES | inhibition in vivo at 3 mg/kg [1] [%] | IC50 [2] [µM]
1 | O=c1[nH]/c(=N\c2ccc(Oc3ccon3)cc2)n(Cc2ccc(Cl)cc2)c(=O)n1CC(CO)CO [Compound I-2291] | > 30 | 
2 | C[C@@H](Cn1c(=O)[nH]/c(=N\c2ccc(OCC3CC3)cc2)n(Cc2ccc(Cl)cc2)c1=O)C(=O)O [Compound I-0837] |  | ≤ 3
